Data reported in patent US11458189B2, “Cytoprotective drugs” (BALMES TRANSPLANTATION, priority 2017, dated 2022).
Starred links: 1 amine or outer side, 2 acyl side, 3 side chain; linkers in the order of their positions; H or OH if unused. Positions of bridges follow the written chain, without caps; N, C: chain ends. Non-standard residues stand in square brackets, D forms with d. Residues, ends and D or L forms follow the SMILES beside them. *: point of attachment. hTyr(3S-OH,4S-OH,3'-OSO3H) = N[C@H](C(=O)O)[C@H](O)[C@@H](O)c1ccc(O)c(OS(=O)(=O)O)c1; Orn(4R-OH,5R-OH) = O=C([C@H](C[C@@H](O)[C@@H](O)N[*:3])N[*:1])[*:2]; Pro(3S-OH,4S-Me) = C[C@H]1CN[C@H](C(=O)O)[C@H]1O; X1 = CCCCCOc1ccc(-c2cc(-c3ccc(C(=O)*)cc3)no2)cc1; Gln(3R-OH) = NC(=O)C[C@@H](O)[C@H](N)C(=O)O; Hyp = O=C(O)[C@@H]1C[C@@H](O)CN1

System: Human Renal Proximal Tubular Epithelial Cells (HRPTEpiC)
Assay: Oxygen and glucose deprivation followed by replenishment, cell survival (calcein AM), HRPTEpiC
Assay type: cell-based
Method: Anidulafungin and micafungin were tested on Human Renal Glomerular Endothelial Cells (HRGEC, Innoprot P10665), on Human Renal Proximal Tubular Epithelial Cells (HRPTEpiC, Innoprot P10662), on Human Astrocytes (HA, caltag SC-1800), on Human Cardiac Microvascular Endothelial Cells (HCMEC, Caltag SC-6000), on Human Hepatic Sinusoidal Endothelial Cells (HHSEC, Caltag SC-5000), on Rat Primary Kidney Glomerular Endothelial cells (Cellbiologics, RN-6014G) and on Bovine Brain Microvascular Endothelial Cells (BBMEC, Caltag SC-B100).
In a first phase, these isolated, purified and cryopreserved cells are thawed and multiplied according to the supplier's recommendations in T75 or T175 flasks pre-coated with 2 μg of fibronectin/[…] (CORNING) for HRGEC, HCMEC, HHSEC and BBMEC, or 2 μg poly-L-lysin/cm^2 (Caltag SC-0403) for HRPTEpiC and HA, or 15 mL/flask 175 cm^2 gelatin-based solution (Cellbiologics) in the presence of endothelial cell supplemented growth medium ECM (P60104, INNOPROT, Caltag, SC-1001) for HRGEC, HCMEC, HHSEC, RPKGEC or BBMEC, or astrocyte cell supplemented growth medium AM (Caltag SC-1801) for HA or epithelial cell supplemented growth medium EpiCM (P60106, INNOPROT) for HRPTEpiC, at 37° C. under 5% CO2 and saturated humidity until their confluency. They are then harvested by trypsinization according to the method described by the supplier for exactly 5 minutes and then reseeded in new flasks a maximum of three times.
To carry out the oxygen and glucose deprivation test followed by their replenishment, the cells will be seeded in 96-well black plates with transparent flat bottom (GREINER). Once a sufficient number of cells has been obtained to allow seeding of 2000 to 15000 cells per well of 96-well plates depending on the cell type, the cells are seeded in these 96-well plates previously coated with an extracellular matrix as listed above for the flasks. The cells are cultured for 5 to 8 days according to the cell type, in the presence of the same growth medium as in the flask as described above except for HRGEC and HRPTEpiC for which DMEM (DUTSCHER) with 1 g/L of supplemented glucose is used, at 37° C. under 5% CO2 and saturated humidity to obtain confluency.
On the first day of oxygen and glucose deprivation, (5th, 6th, 7th or 8th day of culture), the culture conditions are drastically changed. The medium of all plates is removed and replaced by DMEM (DUTSCHER) medium without glucose and supplemented only with 1% penicillin-streptomycin (DUTSCHER). Anidulafungin or micafungin dissolved in dimethyl sulfoxide (DMSO) is then added to each well at the desired concentration, resulting in a maximum of 1% DMSO, and the plates are placed under hypoxia at <1% 02 and 5% CO2 at 37° C. for 24 hours of culture. Each compound was tested in a concentration range.
After 24 hours, the growth medium is changed and replaced by a richer medium, DMEM (DUTSCHER) at 1 g/L glucose and 2% FBS (INNOPROT) and 1% penicillin-streptomycin (DUTSCHER). These media will have been pre-equilibrated at 37° C. in advance. The cells are then returned to culture at 37° C. under 20% 02 and 5% CO2 for 22h.
After 22 hours of reoxygenation, the potential protective effect of anidulafungin or micafungin is measured by a cell viability test using calcein AM (CORNING), which is a dye substrate. The calcein AM can easily cross the cell membrane of the viable cells. The AM ester groups mask the part of the molecule that chelates calcium. Once inside the cells, the (non-fluorescent) calcein AM is hydrolyzed to (fluorescent) calcein by endogenous esterases. The resulting calcein molecule binds to calcium inside the cell and remains trapped inside the cell. These molecules emit strong green fluorescence when subjected to […] of a particular wavelength (495 nm). Since dead cells lack esterase activity, only living cells are labelled.
This cell viability test is performed in two steps. […]

With `CCCCCOc1ccc(-c2cc(-c3ccc(C(=O)N[C@H]4C[C@@H](O)[C@@H](O)NC(=O)[C@@H]5[C@@H](O)[C@@H](C)CN5C(=O)[C@H]([C@H](O)CC(N)=O)NC(=O)[C@H]([C@H](O)[C@@H](O)c5ccc(O)c(OS(=O)(=O)O)c5)NC(=O)[C@@H]5C[C@@H](O)CN5C(=O)[C@H]([C@@H](C)O)NC4=O)cc3)no2)cc1` [Micafungin, {5-[(1S,2S)-2-[(3S,6S,9S,11R,15S,18S,20R,21R,24S,25S,26S)-3-[(1R)-2-carbamoyl-1-hydroxyethyl]-11,20,21,25-tetrahydroxy-15-[(1R)-1-hydroxyethyl]-26-methyl-2,5,8,14,17,23-hexaoxo-18-[(4-{5-[4-(pentyloxy)phenyl]-1,2-oxazol-3-yl}benzene)amido]-1,4,7,13,16,22-hexaazatricyclo[22.3.0.0]heptacosan-6-yl]-1,2-dihydroxyethyl]-2-hydroxyphenyl}oxidanesulfonic acid] (X1-[Orn(4R-OH,5R-OH)]T[Hyp][hTyr(3S-OH,4S-OH,3'-OSO3H)][Gln(3R-OH)][Pro(3S-OH,4S-Me)]; lactam 1-C) the “Globalfluo assay 1” value ([Micafungin] log μM −4.39794) was 17038910 arbitrary units, the “Globalfluo assay 2” value ([Micafungin] log μM −4.39794) was 16914110 arbitrary units and the “Globalfluo assay 3” value ([Micafungin] log μM −4.39794) was 17516930 arbitrary units. The Mean globalfluo ([Micafungin] log μM −4.39794) was 17156650 arbitrary units, the “Survival rate (%)” value ([Micafungin] log μM −4.39794) was 58% and the “Globalfluo assay 1” value ([Micafungin] log μM −4.69897) was 18487560 arbitrary units. For the same compound, the “Globalfluo assay 2” value ([Micafungin] log μM −4.69897) was 18879740 arbitrary units, the “Globalfluo assay 3” value ([Micafungin] log μM −4.69897) was 18282240 arbitrary units and the Mean globalfluo ([Micafungin] log μM −4.69897) was 18549847 arbitrary units. For the same compound, the “Survival rate (%)” value ([Micafungin] log μM −4.69897) was 63%, the “Globalfluo assay 1” value ([Micafungin] log μM −4.79588) was 17777390 arbitrary units and the “Globalfluo assay 2” value ([Micafungin] log μM −4.79588) was 17681470 arbitrary units. For the same compound, the “Globalfluo assay 3” value ([Micafungin] log μM −4.79588) was 18724080 arbitrary units, the Mean globalfluo ([Micafungin] log μM −4.79588) was 18060980 arbitrary units and the “Survival rate (%)” value ([Micafungin] log μM −4.79588) was 61%. For the same compound, the “Globalfluo assay 1” value ([Micafungin] log μM −4.853872) was 17634840 arbitrary units, the “Globalfluo assay 2” value ([Micafungin] log μM −4.853872) was 17920170 arbitrary units and the “Globalfluo assay 3” value ([Micafungin] log μM −4.853872) was 19831830 arbitrary units. For the same compound, the Mean globalfluo ([Micafungin] log μM −4.853872) was 18462280 arbitrary units, the “Survival rate (%)” value ([Micafungin] log μM −4.853872) was 63% and the “Globalfluo assay 1” value ([Micafungin] log μM −4.920819) was 18495680 arbitrary units. The “Globalfluo assay 2” value ([Micafungin] log μM −4.920819) was 17954570 arbitrary units, the “Globalfluo assay 3” value ([Micafungin] log μM −4.920819) was 19304800 arbitrary units and the Mean globalfluo ([Micafungin] log μM −4.920819) was 18585017 arbitrary units. The “Survival rate (%)” value ([Micafungin] log μM −4.920819) was 64%, the “Globalfluo assay 1” value ([Micafungin] log μM −5) was 19091330 arbitrary units and the “Globalfluo assay 2” value ([Micafungin] log μM −5) was 21245570 arbitrary units. For the same compound, the “Globalfluo assay 3” value ([Micafungin] log μM −5) was 20574080 arbitrary units, the Mean globalfluo ([Micafungin] log μM −5) was 20303660 arbitrary units and the “Survival rate (%)” value ([Micafungin] log μM −5) was 71%. The “Globalfluo assay 1” value ([Micafungin] log μM −5.30103) was 17265090 arbitrary units, the “Globalfluo assay 2” value ([Micafungin] log μM −5.30103) was 20693980 arbitrary units and the “Globalfluo assay 3” value ([Micafungin] log μM −5.30103) was 20348120 arbitrary units. The Mean globalfluo ([Micafungin] log μM −5.30103) was 19435730 arbitrary units, the “Survival rate (%)” value ([Micafungin] log μM −5.30103) was 67% and the “Globalfluo assay 1” value ([Micafungin] log μM −5.69897) was 5296218 arbitrary units. For the same compound, the “Globalfluo assay 2” value ([Micafungin] log μM −5.69897) was 13559640 arbitrary units, the “Globalfluo assay 3” value ([Micafungin] log μM −5.69897) was 14370600 arbitrary units and the Mean globalfluo ([Micafungin] log μM −5.69897) was 11075486 arbitrary units. For the same compound, the “Survival rate (%)” value ([Micafungin] log μM −5.69897) was 32%, the “Globalfluo assay 1” value ([Micafungin] log μM −5.823909) was 4696579 arbitrary units and the “Globalfluo assay 2” value ([Micafungin] log μM −5.823909) was 8382404 arbitrary units. For the same compound, the “Globalfluo assay 3” value ([Micafungin] log μM −5.823909) was 9632039 arbitrary units, the Mean globalfluo ([Micafungin] log μM −5.823909) was 7570341 arbitrary units and the “Survival rate (%)” value ([Micafungin] log μM −5.823909) was 18%. For the same compound, the “Globalfluo assay 1” value ([Micafungin] log μM −6) was 5307945 arbitrary units, the “Globalfluo assay 2” value ([Micafungin] log μM −6) was 5614600 arbitrary units and the “Globalfluo assay 3” value ([Micafungin] log μM −6) was 8026091 arbitrary units. For the same compound, the Mean globalfluo ([Micafungin] log μM −6) was 6316212 arbitrary units, the “Survival rate (%)” value ([Micafungin] log μM −6) was 13% and the “Globalfluo assay 1” value ([Micafungin] log μM −6.09691) was 6028392 arbitrary units. The “Globalfluo assay 2” value ([Micafungin] log μM −6.09691) was 5998920 arbitrary units, the “Globalfluo assay 3” value ([Micafungin] log μM −6.09691) was 5793032 arbitrary units and the Mean globalfluo ([Micafungin] log μM −6.09691) was 5940115 arbitrary units. For the same compound, the “Survival rate (%)” value ([Micafungin] log μM −6.09691) was 11%, the “Globalfluo assay 1” value ([Micafungin] log μM −6.221849) was 4745212 arbitrary units and the “Globalfluo assay 2” value ([Micafungin] log μM −6.221849) was 4694631 arbitrary units. For the same compound, the “Globalfluo assay 3” value ([Micafungin] log μM −6.221849) was 5790310 arbitrary units, the Mean globalfluo ([Micafungin] log μM −6.221849) was 5076718 arbitrary units and the “Survival rate (%)” value ([Micafungin] log μM −6.221849) was 8%. For the same compound, the “Globalfluo assay 1” value ([Micafungin] log μM −6.39794) was 4361975 arbitrary units, the “Globalfluo assay 2” value ([Micafungin] log μM −6.39794) was 4442347 arbitrary units and the “Globalfluo assay 3” value ([Micafungin] log μM −6.39794) was 5176795 arbitrary units. The Mean globalfluo ([Micafungin] log μM −6.39794) was 4660372 arbitrary units, the “Survival rate (%)” value ([Micafungin] log μM −6.39794) was 6% and the “Globalfluo assay 1” value ([Micafungin] log μM −6.69897) was 4839699 arbitrary units. For the same compound, the “Globalfluo assay 2” value ([Micafungin] log μM −6.69897) was 4005588 arbitrary units, the “Globalfluo assay 3” value ([Micafungin] log μM −6.69897) was 4289833 arbitrary units and the Mean globalfluo ([Micafungin] log μM −6.69897) was 4378373 arbitrary units. The “Survival rate (%)” value ([Micafungin] log μM −6.69897) was 5%, the “Globalfluo assay 1” value ([Micafungin] log μM −7) was 3602590 arbitrary units and the “Globalfluo assay 2” value ([Micafungin] log μM −7) was 3530551 arbitrary units. For the same compound, the “Globalfluo assay 3” value ([Micafungin] log μM −7) was 3665638 arbitrary units, the Mean globalfluo ([Micafungin] log μM −7) was 3599593 arbitrary units and the “Survival rate (%)” value ([Micafungin] log μM −7) was 2%. For the same compound, the “Globalfluo assay 1” value ([Micafungin] log μM −8) was 3781795 arbitrary units, the “Globalfluo assay 2” value ([Micafungin] log μM −8) was 3409519 arbitrary units and the “Globalfluo assay 3” value ([Micafungin] log μM −8) was 3718559 arbitrary units. For the same compound, the Mean globalfluo ([Micafungin] log μM −8) was 3636624 arbitrary units and the “Survival rate (%)” value ([Micafungin] log μM −8) was 2%.
